Experiment [1] has as its system WT osteoblasts. Nature of the experiment: cAMP production in osteoblasts. The experiment is classed as cell-based, mouse. An excerpt:
β2AR is the only post-synaptic β-AR whose expression can be detected in osteoblasts. […] Thus, we used Adrb2−/− mice to study how sympathetic signaling affects bone remodeling in adult animals.

Experiment [2] relates to bone marrow macrophages (BMMs). As to the kind of experiment: In vitro osteoclast differentiation of BMMs with RANK-L and M-CSF (TRAP+ count). The experiment is classed as cell-based, mouse. The settings on record: 10 uM ISO, counted after 5 days. Here is the method:
(§1) BBMs were differentiated with the indicated amounts of RANK-L and MCS-F and the number of TRAP+ osteoclasts was counted after 5 days. […] BBMs were differentiated in presence of MCS-F and RANK-L with or without 10 uM ISO and the number of TRAP+ osteoclasts was counted after 5 days. […] BBMs were differentiated in presence of MCS-F and RANK-L and were treated by ISO (10 μM), dobutamine (Dobu, 10 μM) or calcitonin (100 pg/ml). Intracellular cAMP production was measured by EIA. […] Osteoblasts and BMMs were co-cultured with 1,25(OH)2-vitamin D (10^-8 M) with or without ISO (10 uM) and the number of TRAP+ osteoclasts was counted after 4 days. […] WT and Adrb2 primary osteoblasts were treated for the indicated time with ISO (10 μM) and gene expression was quantified by real-time RT-PCR. (g) Schematic diagram of the structure of Rank-1 and IL6 promoters. Boxes represent CREB-like consensus binding sites.

Experiment [3] relates to mature osteoclasts. Nature of the experiment: cAMP production in mature osteoclasts (EIA). The experiment is classed as cell-based, mouse. The settings on record: ISO 10 μM, calcitonin 100 pg/ml. Here is the method:
(a) In vitro osteoclastogenesis is not affected by Adrb2 deficiency. BBMs were differentiated with the indicated amounts of RANK-L and MCS-F and the number of TRAP+ osteoclasts was counted after 5 days. (b) In vitro osteoclast differentiation is not affected by Isoproterenol (ISO) treatment. BBMs were differentiated in presence of MCS-F and RANK-L with or without 10 uM ISO and the number of TRAP+ osteoclasts was counted after 5 days. […] BBMs were differentiated in presence of MCS-F and RANK-L and were treated by ISO (10 μM), dobutamine (Dobu, 10 μM) or calcitonin (100 pg/ml). Intracellular cAMP production was measured by EIA. (d) ISO stimulated osteoclast differentiation via stimulation of b2AR in osteoblasts. Osteoblasts and BMMs were co-cultured with 1,25(OH)2-vitamin D (10^-8 M) with or without ISO (10 uM) and the number of TRAP+ osteoclasts was counted after 4 days. (e) ISO induced Rank-l expression in osteoblasts, via b2AR. (f) ISO induced IL6 expression in osteoblasts, via b2AR. WT and Adrb2 primary osteoblasts were treated for the indicated time with ISO (10 μM) and gene expression was quantified by real-time RT-PCR. (g) Schematic diagram of the structure of Rank-1 and IL6 promoters. Boxes represent CREB-like consensus binding sites.
To test whether sympathetic signaling could affect osteoclast function, we treated TRAP-positive multinucleated osteoclasts with isoproterenol.

In experiment [4] the test system is WT mature osteoclasts. Nature of the experiment: Osteoclast function: resorption pits on dentine slices. The experiment is classed as cell-based, mouse.
From the text: WT or Adrb2 BBMs were differentiated for 2 days with MCS-F and RANK-L, trypsinized and platted on dentine slices for 2 days. Resorption pits were stained with hematoxylin and resorption pit area was quantified (data not shown). To test whether sympathetic signaling could affect osteoclast function, we treated TRAP-positive multinucleated osteoclasts with isoproterenol.
Experiment [5] relates to primary osteoblasts. As to the kind of experiment: Gene expression in primary osteoblasts by real-time RT-PCR. The experiment is classed as cell-based, mouse. Here is the method: as §1
To test this hypothesis we analyzed the expression in osteoblasts of genes encoding known regulators of osteoclast differentiation following treatment with isoproterenol.
For orientation: Real-time PCR tracks product formation cycle by cycle.

For experiment [6], the system named is osteoblasts and BMMs. As to the kind of experiment: Co-culture of osteoblasts and BMMs with 1,25-(OH)2 vitamin D3 (TRAP+ osteoclast count). The settings on record: for number of TRAP-positive multinucleated osteoclasts in co-culture: WT osteoblasts and WT BMMs, ISO 10 uM, 4 days. The experiment is classed as cell-based, mouse. The protocol:
as §1
To that end we performed co-culture of BMMs and osteoblasts prepared from mouse calvariae. In this assay treatment of osteoblasts with 1,25-(OH)2 vitamin D3 leads to the differentiation of BMMs into TRAP-positive multinucleated osteoclasts.

Experiment [7] deals with WT mice. As to the kind of experiment: Gene expression in bones of WT mice treated for 3 weeks. The experiment is classed as in vivo, mouse. The note with it: 3 weeks treatment. An excerpt:
To determine the biological relevance of these findings we performed two experiments. First, we treated WT mice with isoproterenol for 3 weeks and analyzed bone resorption parameters and bone expression of Rank-l and IL6 at the end of this treatment period. […] Second, to determine the role that this physiological regulation may have in pathological conditions such as bone loss developing after menopause, we ovariectomized WT and Adrb2−l− mice at one month of age and analyzed them 3 months later. […] The increase in bone formation that persisted together with the absence of any increase in bone resorption explained why Adrb2−/− mice maintained a higher bone mass than WT mice.

The subject of experiment [8] is WT mice. The settings on record: stated as known property; cited from earlier work.
The subject of experiment [9] is WT mice. As to the kind of experiment: Bone remodeling parameters in treated WT mice. Format: in vivo, mouse. An excerpt: (a) von Kossa staining of vertebral sections. Six month old Adrb2−/− and Adrb2+/− mice display an increase in bone volume over tissue volume (BV/TV) compared to wt littermates. (b) Bone formation parameters: bone formation rate (BFR), osteoblast surface over bone surface (ObS/BS) and osteoblast number over bone perimeter (ObNb/BPm) are increased in Adrb2−/− and Adrb2+/− mice. (c) Bone resorption parameters: osteoclast surface over bone surface (OcS/BS), osteoclast number over bone perimeter (OcNb/BPm) and urinary elimination of deoxypiridinoline (dpd) are decreased in Adrb2−/− and Adrb2+/− mice.
First, we analyzed mice lacking only one copy of Adrb2 and compared them to WT mice treated with propranolol, a β-adrenergic receptor antagonist whose administration enhances bone formation in mice. Expression of Adrb2 was first assayed in WT, Adrb2−/− and Adrb2+/− osteoblasts. […] This was due to both an increase in bone formation and a decrease in bone resorption (FIGS. 1b and 1c). To our knowledge, this high bone mass is the only phenotypic consequence reported so far in the case of haploinsufficiency at the Adrb2 locus.

“Also recorded” adds a separate entry of the source. Where two headings read alike, the source gives them in different places.

Turning to `CC(CCc1ccc(O)cc1)NCCc1ccc(O)c(O)c1` (stereo not drawn) [dobutamol], the “cAMP production in osteoblasts” value in experiment [1] was “did not and not”.
Regarding `CC(C)NCC(O)c1ccc(O)c(O)c1` (stereo not drawn) [isoproterenol], the “number of TRAP-positive multinucleated osteoclasts” value in experiment [2] is “did not affect”; in [2] (listed as Isoproterenol), “not affected”. Also, the “intracellular cAMP production in osteoclasts” value in [3] is “did not induce any significant”; in experiment [3] (listed as ISO) it was “does not induce”. Also, the “osteoclast function (pit formation / resorption pit area on dentine slices)” value is given as “did not affect” in experiment [4] and “normal” in experiment [4] (listed as ISO). For the same molecule, in experiment [5] (Adrb2−/− osteoblasts), the “induction of Rank-l expression” value is “not detected”. In addition, the “IL6 expression in osteoblasts” value in experiment [5] (ISO 10 μM) is on record as “increased”; in [5] (ISO 10 μM, listed as ISO) it was “induced”. Moreover, the “Rank-l expression in osteoblasts (in words)” value in experiment [5] (WT osteoblasts, ISO 10 μM) is given as “induced”. Besides, in experiment [5] (WT osteoblasts, ISO 10 μM), the “increase of Rank-l expression” value is listed as roughly 20 fold. In addition, in [5] (osteoblasts, data not shown), the “expression of IL2” value is “did not affect”. In experiment [5] (osteoblasts, data not shown), the “expression of ILI α” value is “did not affect”. Moreover, the “expression of M-CSF” value in experiment [5] (osteoblasts, data not shown) is “did not affect”. Further, the “expression of osteoprotegerin (Opg)” value in [5] (osteoblasts, data not shown) was “did not affect”. Also, the “osteoclast differentiation in co-culture” value in [6] (Adrb2−/− osteoblasts with WT BMMs) was “could not enhance”; in experiment [6] (WT osteoblasts with Adrb2−/− BMMs), “increased”. Also, the results for the “number of TRAP-positive multinucleated osteoclasts in co-culture” value in [6] and in [6] (listed as ISO) were “significantly increased” and “stimulated”, respectively. In addition, the figures for the “cAMP production in osteoblasts” value in experiment [1] and in [1] (listed as Isoproterenol) were “enhances” and “stimulate”, respectively. In experiment [7], the “IL6 expression in bones” value is on record as “increased”. Moreover, in [7], the “OPG expression in bones” value was “unaffected”. The “Rank-l expression in bones” value in experiment [7] is given as “increased”.
Turning to `CC(C)NCC(O)COc1cccc2ccccc12` (stereo not drawn) [propranolol], in experiment [8], the bone formation entry is “enhances”. In experiment [9], the “bone resorption parameters (OcS/BS, OcNb/BPm, urinary dpd)” value is on record as “do not display a significant decrease; also recorded: did not affect”.
As for `CC(C)(C)NCC(O)c1ccc(O)c(CO)c1` (stereo not drawn) [salbutamol], in experiment [1], the “cAMP production in osteoblasts” value was “stimulated”.
On to calcitonin, for which the “intracellular cAMP production in osteoclasts” value in [3] was “robust stimulation”.

B1: Parathyroid hormone (peptide, UniProt P01270 32-115, looked up)
Parathyroid hormone: SVSEIQLMHNLGKHLNSMERVEWLRKKLQDVHNFVALGAPLAPRDAGSQRPRKKEDNVLVESHEKSLGEADKADVNVLTKAKSQ
modifications: Parathyroid hormone
notes: Parathyroid hormone (PTH)
In the case of B1, the “cAMP production in osteoblasts” value in [1] is “stimulate”.
